# Measured values reported in ChEMBL document CHEMBL6096697, “Structure-Guided Discovery of Novel N4-(Substituted Thiazol-2-yl)-N2-(4-Substituted phenyl)pyrimidine-2,4-Diamines as Potent CDK2 and CDK9 Dual Inhibitors with High Oral Bioavailability” (J Med Chem, 2025).
# Calls of active or inactive are those of the source. The calls are words filed in the database; no cut-off is given here.
# Tests used:
# [1] = target: Cyclin-dependent kinase 4/cyclin D1 (Homo sapiens, UniProt P11802); assay: Inhibition of CDK4/cyclin D (unknown origin) using […] incubated for 40 mins in presence of ATP by Kinase-Glo assay; assay type: protein-complex assay
# Sequence of Cyclin-dependent kinase 4/cyclin D1 (P11802 whole entry): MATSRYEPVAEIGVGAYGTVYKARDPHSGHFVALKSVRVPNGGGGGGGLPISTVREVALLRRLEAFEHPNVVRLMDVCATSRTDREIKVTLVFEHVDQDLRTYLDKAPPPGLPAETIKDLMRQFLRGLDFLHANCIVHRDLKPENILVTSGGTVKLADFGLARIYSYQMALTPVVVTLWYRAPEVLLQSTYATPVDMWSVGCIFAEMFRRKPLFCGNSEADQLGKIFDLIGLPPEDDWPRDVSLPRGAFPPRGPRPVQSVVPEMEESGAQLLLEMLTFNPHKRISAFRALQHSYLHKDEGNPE
# Sequence of Cyclin-dependent kinase 4/cyclin D1 (P24385 whole entry, further chain): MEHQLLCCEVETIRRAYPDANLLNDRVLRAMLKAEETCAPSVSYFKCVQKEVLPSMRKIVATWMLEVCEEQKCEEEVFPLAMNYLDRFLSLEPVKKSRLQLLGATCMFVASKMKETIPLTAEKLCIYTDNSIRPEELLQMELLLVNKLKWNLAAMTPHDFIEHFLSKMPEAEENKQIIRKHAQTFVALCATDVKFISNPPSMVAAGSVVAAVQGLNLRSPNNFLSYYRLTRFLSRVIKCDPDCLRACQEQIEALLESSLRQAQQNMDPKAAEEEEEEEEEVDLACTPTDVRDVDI
# [2] = Inhibition of CDK6/cyclin D (unknown origin) using […] incubated for 40 mins in presence of ATP by Kinase-Glo assay; parameters: species or system Homo sapiens
# [3] = target: Cyclin-dependent kinase 7/ cyclin H (Homo sapiens, UniProt P50613); assay: Inhibition of CDK7/cyclin H (unknown origin) using […] incubated for 40 mins in presence of ATP by Kinase-Glo assay; assay type: protein-complex assay
# Sequence of Cyclin-dependent kinase 7/ cyclin H (P51946 whole entry): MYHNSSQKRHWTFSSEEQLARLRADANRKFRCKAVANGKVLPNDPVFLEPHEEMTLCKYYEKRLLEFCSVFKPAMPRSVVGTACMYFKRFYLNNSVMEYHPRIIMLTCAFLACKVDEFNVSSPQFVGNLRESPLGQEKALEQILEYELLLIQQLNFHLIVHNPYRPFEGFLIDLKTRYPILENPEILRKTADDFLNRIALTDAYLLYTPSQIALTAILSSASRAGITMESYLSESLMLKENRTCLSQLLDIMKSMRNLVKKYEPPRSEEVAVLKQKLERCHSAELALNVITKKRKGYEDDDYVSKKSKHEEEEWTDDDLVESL
# Sequence of Cyclin-dependent kinase 7/ cyclin H (P50613 whole entry): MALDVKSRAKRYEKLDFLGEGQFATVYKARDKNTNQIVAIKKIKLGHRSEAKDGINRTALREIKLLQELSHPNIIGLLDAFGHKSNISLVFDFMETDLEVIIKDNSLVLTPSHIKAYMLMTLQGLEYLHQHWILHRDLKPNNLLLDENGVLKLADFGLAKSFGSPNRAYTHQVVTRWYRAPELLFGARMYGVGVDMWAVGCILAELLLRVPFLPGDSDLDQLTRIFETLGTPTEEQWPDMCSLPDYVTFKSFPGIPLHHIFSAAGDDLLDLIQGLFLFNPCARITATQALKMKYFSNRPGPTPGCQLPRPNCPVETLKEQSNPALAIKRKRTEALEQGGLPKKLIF
# MDA-MB-231 = assay: Antiproliferative activity against human MDA-MB-231 cells assessed as cell growth inhibition incubated for 48 hrs by MTT assay; assay type: functional, cell-based; settings: MDA-MB-231, 48 h
# HeLa [4] = assay: Antiproliferative activity against human HeLa cells assessed as cell growth inhibition incubated for 48 hrs by MTT assay; assay type: functional, cell-based
# [5] = Antiproliferative activity against HEK293 cells assessed as cell growth inhibition incubated for 48 hrs by MTT assay; assay type: toxicity, cell-based; settings: human
# [6] = target: Cyclin-dependent kinase 2 (Homo sapiens) (UniProt P24941); assay: Inhibition of CDK2 in human HCT-116 cells assessed as reduction in Rb phosphorylation at Ser807/811 incubated for 24 hr s by Western blot analysis; assay type: cell-based; settings: dose <= 0.8 µM
# HCT-116 [7] = assay: Induction of cell cycle arrest in human HCT-116 cells assessed as accumulation at G1/G0 phase at 0.2 uM incubated for 24 hrs by PI staining based flow cytometry (reference value: 58.29 +/- 2.01 %); assay type: functional
# HCT-116 [8] = assay: Induction of cell cycle arrest in human HCT-116 cells assessed as accumulation at G2/M phase at 0.2 uM incubated for 24 hrs by PI staining based flow cytometry (reference value: 20.6 +/- 3.38 %); assay type: functional
# HCT-116 [9] = assay: Induction of cell cycle arrest in human HCT-116 cells assessed as accumulation at G2/M phase at 0.4 uM incubated for 24 hrs by PI staining based flow cytometry (reference value: 20.6 +/- 3.38 %); assay type: functional
# HCT-116 [10] = assay: Induction of cell cycle arrest in human HCT-116 cells assessed as accumulation at S phase at 0.8 uM incubated for 24 hrs by PI staining based flow cytometry (reference value: 20.82 +/- 1.24 %); assay type: functional
# HCT-116 [11] = assay: Induction of cell cycle arrest in human HCT-116 cells assessed as accumulation at G2/M phase at 0.8 uM incubated for 24 hrs by PI staining based flow cytometry (reference value: 20.6 +/- 3.38 %); assay type: functional
# HeLa [12] = assay: Induction of cell cycle arrest in human HeLa cells assessed as accumulation at G1/G0 phase at 0.9 uM incubated for 24 hrs by PI staining based flow cytometry (reference value: 57.63 +/- 1.7 %); assay type: functional
# HeLa [13] = assay: Induction of cell cycle arrest in human HeLa cells assessed as accumulation at S phase at 3.6 uM incubated for 24 hrs by PI staining based flow cytometry (reference value: 17.84 +/- 1.89 %); assay type: functional
# HeLa [14] = assay: Induction of cell cycle arrest in human HeLa cells assessed as accumulation at G2/M phase at 3.6 uM incubated for 24 hrs by PI staining based flow cytometry (reference value: 24.6 +/- 1.11 %); assay type: functional
# HCT-116 [15] = assay: Induction of cell cycle arrest at G2/M phase in human HCT-116 cells assessed as decrease in cyclin B1 level incubated for 48 hrs by Western blot analysis; assay type: functional, cell-based; settings: dose <= 0.8 µM
# HCT-116 [16] = assay: Induction of cell cycle arrest at G2/M phase in human HCT-116 cells assessed as decrease in p-Cdc2 level at 0.4 uM by Western blot analysis; assay type: functional, cell-based; settings: time <= 48.0 hrs
# HeLa [17] = assay: Induction of cell cycle arrest at G2/M phase in human HeLa cells assessed as decrease in cyclin B1 level at 1.8 uM by Western blot analysis; assay type: functional, cell-based; settings: time <= 48.0 hrs
# HCT-116 [18] = assay: Induction of apoptosis in human HCT-116 cells assessed as early apoptotic cells at 0.2 uM incubated for 24 hrs by PI staining based flow cytometry (reference value: 0.19 %); assay type: functional
# HCT-116 [19] = assay: Induction of apoptosis in human HCT-116 cells assessed as necrotic cells at 0.2 uM incubated for 24 hrs by PI staining based flow cytometry (reference value: 18.9 %); assay type: functional
# HCT-116 [20] = assay: Induction of apoptosis in human HCT-116 cells assessed as late apoptotic cells at 0.8 uM incubated for 24 hrs by PI staining based flow cytometry (reference value: 1.11 %); assay type: functional
# HeLa [21] = assay: Induction of apoptosis in human HeLa cells assessed as viable cells at 1.8 uM incubated for 24 hrs by PI staining based flow cytometry (reference value: 68.9 %); assay type: functional; settings: read-out: Activity
# HeLa [22] = assay: Induction of apoptosis in human HeLa cells assessed as late apoptotic cells at 1.8 uM incubated for 24 hrs by PI staining based flow cytometry (reference value: 3.85 %); assay type: functional
# HeLa [23] = assay: Induction of apoptosis in human HeLa cells assessed as early apoptotic cells at 3.6 uM incubated for 24 hrs by PI staining based flow cytometry (reference value: 0.8 %); assay type: functional
# HeLa [24] = assay: Induction of apoptosis in human HeLa cells assessed as increase in p53 level upto 3.6 uM incubated for 24 hrs by Western blot analysis; assay type: functional, cell-based
# HCT-116 [25] = assay: Induction of apoptosis in human HCT-116 cells assessed as decrease in Bcl-2 level upto 0.8 uM incubated for 24 hrs by Western blot analysis; assay type: functional, cell-based
# HeLa [26] = assay: Induction of apoptosis in human HeLa cells assessed as decrease in Bcl-2 level upto 3.6 uM incubated for 24 hrs by Western blot analysis; assay type: functional, cell-based
# HCT-116 [27] = assay: Induction of apoptosis in human HCT-116 cells assessed as increase in cleaved PARP level upto 0.8 uM incubated for 24 hrs by Western blot analysis; assay type: functional, cell-based
# [28] = MRT (0 to t) in Sprague-Dawley rat at 2 mg/kg, iv measured for 36 hrs by MRM analysis; assay type: ADME, organism-based; settings: in vivo
# [29] = Half life in Sprague-Dawley rat at 2 mg/kg, iv measured for 36 hrs by MRM analysis; assay type: ADME, organism-based; settings: in vivo
# [30] = Apparent volume of distribution in Sprague-Dawley rat at 2 mg/kg, iv measured for 36 hrs by MRM analysis; assay type: ADME, organism-based; settings: in vivo, read-out: Vz
# [31] = Cmax in Sprague-Dawley rat at 2 mg/kg, iv measured for 36 hrs by MRM analysis; assay type: ADME, organism-based; settings: in vivo
# [32] = MRT (0 to t) in Sprague-Dawley rat at 10 mg/kg, po measured for 36 hrs by MRM analysis; assay type: ADME, organism-based; settings: in vivo
# [33] = Cmax in Sprague-Dawley rat at 10 mg/kg, po measured for 36 hrs by MRM analysis; assay type: ADME, organism-based; settings: in vivo
# C6 = assay: Antitumor activity against rat C6 cells allografted in Sprague-Dawley rat at 70 mg/kg/day, po treated for 2 weeks relative to control; assay type: functional; settings: C6, 336 h, read-out: TGI
# [34] = Toxicity in Sprague-Dawley rat allografted with rat C6 cells assessed as obvious signs of toxicity at 70 mg/kg/day, po treated for 2 weeks; assay type: organism-based; settings: in vivo, 336 h
structure (smiles),measurement,setting,value
Cc1cnc(Nc2ccc(S(N)(=O)=O)cc2)nc1Nc1nccs1,IC50,[1],942 nM
same,IC50,[2],3250 nM
same,IC50,[3],215 nM
same,IC50,MDA-MB-231,928 nM
same,IC50,HeLa [4],1840 nM
same,IC50 at 48 h,[5],90100 nM
same,inhibition,[6],Dose-dependent-effect
same,Activity,HCT-116 [7],51.83%
same,Activity,HCT-116 [8],24.4%
same,Activity,HCT-116 [9],33.27%
same,Activity,HCT-116 [10],20.18%
same,Activity,HCT-116 [11],37.16%
same,Activity,HeLa [12],52.88%
same,Activity,HeLa [13],17.55%
same,Activity,HeLa [14],44.19%
same,Activity,HCT-116 [15],Dose-dependent-effect
same,Activity,HCT-116 [16],Time-dependent-effect
same,Activity,HeLa [17],Time-dependent-effect
same,Activity,HCT-116 [18],2%
same,Activity,HCT-116 [19],3.6%
same,Activity,HCT-116 [20],27.7%
same,viability at 1.8 µM,HeLa [21],11.3%
same,Activity,HeLa [22],25.9%
same,Activity,HeLa [23],61%
same,Activity,HeLa [24],Active
same,Activity,HCT-116 [25],Active
same,Activity,HeLa [26],Active
same,Activity,HCT-116 [27],Active
same,MRT last at 36 h,[28],2.7 h
same,half-life,[29],4.5 h
same,Vd,[30],275 L/kg
same,Cmax,[31],29.1 ng/mL
same,MRT last at 36 h,[32],6.5 h
same,Cmax,[33],21.1 ng/mL
same,inhibition in vivo at 70 mg/kg/day,C6,86%
same,Activity,[34],Non-toxic
